The source of these data is patent publication US7595395B2, “Gabaergic agents to treat memory deficits” (priority 2005, dated 2009).

One assay addresses α2β3γ2 GABAA receptor (Rattus norvegicus, UniProt P18508+P23576). Briefly: Two-electrode voltage clamp in Xenopus oocytes, α2β3γ2. To be noted: oocytes. In general terms: Two-electrode voltage clamp is typically applied to oocytes expressing channels or transporters.
The target in assay [1] is T1, α1β3γ2 benzodiazepine receptor GABA(A) isoform (UniProt P14867+P18507).
T1 sequence (P14867 1-456): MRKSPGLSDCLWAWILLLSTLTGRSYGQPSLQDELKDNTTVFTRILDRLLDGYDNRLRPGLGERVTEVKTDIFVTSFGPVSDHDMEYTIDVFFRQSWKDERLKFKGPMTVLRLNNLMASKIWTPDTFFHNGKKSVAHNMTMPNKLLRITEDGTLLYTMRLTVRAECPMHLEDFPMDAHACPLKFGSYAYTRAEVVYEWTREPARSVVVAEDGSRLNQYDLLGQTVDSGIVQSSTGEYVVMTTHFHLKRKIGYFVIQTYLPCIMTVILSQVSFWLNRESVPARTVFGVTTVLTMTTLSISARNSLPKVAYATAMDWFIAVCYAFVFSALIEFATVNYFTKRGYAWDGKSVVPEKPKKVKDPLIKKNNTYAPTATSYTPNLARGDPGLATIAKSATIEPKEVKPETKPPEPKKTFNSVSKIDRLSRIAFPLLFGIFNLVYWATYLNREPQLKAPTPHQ
T1 sequence (P18507 1-475): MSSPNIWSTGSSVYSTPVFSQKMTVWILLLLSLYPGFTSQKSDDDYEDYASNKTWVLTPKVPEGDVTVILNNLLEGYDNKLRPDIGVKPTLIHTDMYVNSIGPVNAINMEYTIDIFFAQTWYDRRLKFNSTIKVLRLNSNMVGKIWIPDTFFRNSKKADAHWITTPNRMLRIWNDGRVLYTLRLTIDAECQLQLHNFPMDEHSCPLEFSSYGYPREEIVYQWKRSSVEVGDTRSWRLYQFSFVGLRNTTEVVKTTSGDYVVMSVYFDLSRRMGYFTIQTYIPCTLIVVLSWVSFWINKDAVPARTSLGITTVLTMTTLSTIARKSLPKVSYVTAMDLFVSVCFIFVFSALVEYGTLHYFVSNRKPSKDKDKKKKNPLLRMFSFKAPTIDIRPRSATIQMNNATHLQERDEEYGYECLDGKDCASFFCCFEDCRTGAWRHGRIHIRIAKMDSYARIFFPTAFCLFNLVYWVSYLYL
The assay can be described thus: Radioligand competition binding, α1β3γ2 BzR/GABA(A) isoform. Details: rows headed: Ki α1 (in words); other: text; HEK-T cells (Roth et al.); species or system human and rat. To be noted: HEK-T cells (Roth et al.). The protocol: The affinity of all ligands at the 6 major recombinant GABAA/BzR subtypes was measured by competition for [^3H]Ro15-1788 binding to HEK-T cells expressing both human and rat GABAA/Bz receptors of composition α1β2γ2 (α1), α2β2γ2 (α2), α3β2γ2 (α3), α4β2γ2 (α4), α5β2γ2 (α5) and α6β2γ2 (α6). It is well known that the β2 and β3 subunits can be interchanged with no effect on Bz ligand affinity or efficacy. […] These studies are similar to those performed in the laboratory of Bryan Roth who has already expressed the receptors employing the work of Kucken et. al. and Gray et. al.
In brief, for membrane preparations, the cells were scraped on to the ice and diluted into 5 mL of phosphate buffered saline (pH=7.40) and cells pelleted by centrifugation for 5 min. at 4° C. The pellet was resuspended in 1 mL of 50 mM Tris-acetate buffer (pH 7.4) and centrifuged at 18,000 g for 20 min. […] Each pellet were diluted to 6 mL and then 100 μL of membranes were incubated with approximately 1 nM final concentration of [^3H]Ro 15-1788 in a total volume of 250 μL together with serial dilutions of test compound for 90 min. on ice. The membranes were harvested in polyethyleneimine-pretreated Whatman GF/C filters and after drying and addition of scintillation cocktail, counted in a scintillation counter. […]

The next assay concerns C57B1/6 mice. The assay can be described thus: Audio cued fear conditioning. The assay is classed as in vivo. The conditions noted are these: scopolamine impairment. The source says: Further, animal data for FIGS. 22-26 were obtained using experimental methodologies described in a previously published reference, Influence of benzodiazepine binding site ligands on fear-conditioned contextual memory European journal of Pharmacology, Volume 426, Issues 1-2, 24 Aug. 2001, Pages 45-54, Timothy M. DeLorey, Richard C. Lin, Brian McBrady, Xiaohui He, James M. Cook, Jelveh Lameh and Gilda H. Loew, which is incorporated by reference as if fully set forth here in its entirety. Selected sections of the reference are provided below:
Male C57B1/6 mice were obtained from Charles Rivers Laboratories (Holister, Calif.) at 6 weeks of age. […] All animal protocols used in this study conform to the guidelines determined by the National Institute of Health (USA) Office for Protection from Research Risks and are approved by the Animal Care and Use Committee of the Palo Alto Veterans Administration Medical Center, Palo, Alto, Calif. […]
Before testing each day, the mice were moved to a holding room and allowed to acclimate for at least 30 min. […] Twenty-four hours later, contextual memory was assessed by placing the mice back into the freshly rescented (0.3% Ammonium hydroxide) conditioning chambers in which they were trained, for a 4-min test period in the absence of footshock. […] Data were analyzed by one-way analysis of variance(ANOVA) using GraphPad PRISM 2.01 (GraphPad Software). […]

α2β3γ2 GABAA receptor, sequence (P23576 29-451): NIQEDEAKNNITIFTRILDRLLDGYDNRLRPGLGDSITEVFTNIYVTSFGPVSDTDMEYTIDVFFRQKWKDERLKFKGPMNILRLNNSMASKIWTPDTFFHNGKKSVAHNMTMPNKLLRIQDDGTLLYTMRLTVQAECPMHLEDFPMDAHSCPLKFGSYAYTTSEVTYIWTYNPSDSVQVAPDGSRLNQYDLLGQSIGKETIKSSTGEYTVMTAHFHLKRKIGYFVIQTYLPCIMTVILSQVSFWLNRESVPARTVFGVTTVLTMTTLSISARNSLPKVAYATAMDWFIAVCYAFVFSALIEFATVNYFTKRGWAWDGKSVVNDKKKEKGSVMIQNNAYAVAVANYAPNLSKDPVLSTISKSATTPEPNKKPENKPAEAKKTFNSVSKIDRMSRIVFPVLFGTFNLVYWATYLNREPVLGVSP
α2β3γ2 GABAA receptor, sequence (P63079 26-473 partner): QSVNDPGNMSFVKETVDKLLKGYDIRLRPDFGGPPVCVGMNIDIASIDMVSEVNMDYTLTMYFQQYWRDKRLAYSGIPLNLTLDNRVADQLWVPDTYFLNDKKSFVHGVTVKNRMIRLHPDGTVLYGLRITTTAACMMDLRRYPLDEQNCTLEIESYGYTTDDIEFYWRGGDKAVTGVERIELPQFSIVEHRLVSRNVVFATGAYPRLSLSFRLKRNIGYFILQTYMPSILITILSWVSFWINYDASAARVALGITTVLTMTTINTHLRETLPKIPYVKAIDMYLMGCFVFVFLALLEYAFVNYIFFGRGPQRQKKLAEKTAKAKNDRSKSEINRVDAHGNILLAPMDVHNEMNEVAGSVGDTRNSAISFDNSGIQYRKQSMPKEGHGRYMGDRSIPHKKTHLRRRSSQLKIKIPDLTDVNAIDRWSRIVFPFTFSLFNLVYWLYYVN
α2β3γ2 GABAA receptor, sequence (P18508 39-466): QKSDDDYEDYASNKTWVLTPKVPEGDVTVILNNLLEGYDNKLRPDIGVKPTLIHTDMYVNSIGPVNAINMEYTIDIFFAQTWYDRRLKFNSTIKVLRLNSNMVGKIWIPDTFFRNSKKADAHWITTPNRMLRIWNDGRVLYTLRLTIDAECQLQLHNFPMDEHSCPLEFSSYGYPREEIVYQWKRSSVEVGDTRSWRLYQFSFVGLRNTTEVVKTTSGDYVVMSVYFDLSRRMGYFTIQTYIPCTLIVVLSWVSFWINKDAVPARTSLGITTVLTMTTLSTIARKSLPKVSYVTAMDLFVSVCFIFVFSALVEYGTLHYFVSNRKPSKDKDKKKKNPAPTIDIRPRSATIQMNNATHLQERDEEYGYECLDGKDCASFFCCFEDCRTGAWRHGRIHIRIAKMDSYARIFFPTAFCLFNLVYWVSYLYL

In the case of `COCc1ncn2c1CN(C)C(=O)c1cc(Cl)ccc1-2` [PWZ-029, methyl(8-chloro-5,6-dihydro-5-methyl-6-oxo-4H-imidazo[1,5-α][1,4]benzodiazepin-3-yl)methyl ether], the “efficacy / modulation of GABA elicited currents at α2 (in words)” value at α2β3γ2 GABAA receptor is on record as “very, very weak agonist activity”.
For the molecule `CCc1ccc2c(c1)C(=O)N(C)Cc1c(C(=O)OCCCOC(=O)c3ncn4c3CN(C)C(=O)c3cc(CC)ccc3-4)ncn1-2` [XLi356, 1,3-Bis(8-ethyl-5,6-dihydro-5-methyl-6-oxo-4H-imidazo[1,5a][1,4]benzodiazepine-3-carboxy)propyl diester], the “Ki α1 (in words)” value in assay [1] is on record as “no affinity”. Moreover, the “audio cued memory / audio cued fear conditioning (in words)” value in the assay on C57B1/6 mice (listed as XLI356) was “not able to reverse this type of memory”; with C57B1/6 mice (listed as Xli356), “no activity”.
